Here are results for 13 molecules from publication PMC11112591 (ACS Omega, 2024).

In data set [1] the target is CYP51 (Trypanosoma cruzi, UniProt Q7Z1V1). In words: CYP51 inhibition of initial hits. The class given is biochemical. To be noted: initial hit data, Figure 1.
Data set [2] is described as follows: Mouse liver microsome intrinsic clearance. The conditions noted are these: liver microsomes, pH 7.4. The class given is in vitro ADME.
The nature of data set [3]: Parallel artificial membrane permeability assay. The data set is classed as in vitro ADME. The conditions noted are these: PAMPA, PAMPA effective permeability, donor pH 6.5, acceptor pH 7.5, 5 h, 37 °C. (In PAMPA a lipid-coated filter parts donor from acceptor wells.)

CYP51, sequence (Q7Z1V1 whole entry): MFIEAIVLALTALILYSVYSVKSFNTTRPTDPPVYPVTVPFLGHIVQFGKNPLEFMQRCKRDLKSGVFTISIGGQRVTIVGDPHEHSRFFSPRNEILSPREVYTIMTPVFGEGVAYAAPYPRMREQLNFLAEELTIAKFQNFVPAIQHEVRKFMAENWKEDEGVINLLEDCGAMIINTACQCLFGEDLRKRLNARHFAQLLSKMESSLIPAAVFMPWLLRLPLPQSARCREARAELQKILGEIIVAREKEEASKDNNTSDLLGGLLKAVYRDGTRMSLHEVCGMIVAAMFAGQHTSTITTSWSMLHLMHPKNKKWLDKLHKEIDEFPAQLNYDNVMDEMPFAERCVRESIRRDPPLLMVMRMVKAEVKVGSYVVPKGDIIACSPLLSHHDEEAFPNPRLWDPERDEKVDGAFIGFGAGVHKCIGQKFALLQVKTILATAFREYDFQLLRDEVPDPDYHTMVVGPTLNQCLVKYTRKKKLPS

The term microsomal CLint denotes the capacity of the preparation to metabolise the compound, expressed as a volume cleared per time. Usually Papp stands for the rate of passage across a membrane or cell layer, normalised by area and donor concentration. As for `Cc1cc(C)c(C#N)c(SCC(=O)c2cccs2)n1` [Compound 1, c1(SCC(=O)c2cccs2)nc(C)cc(C)c1C#N], the “CYP51 IC50” value in data set [1] is on record as “no clear CYP51 inhibition”. The molecule further gave a microsomal CLint at 0.5 µM in data set [2] of 3480 µL/min/mg. This molecule had a Papp at 5 h, 1 µM in data set [3] of 25.4 ×10⁻⁶ cm/s.

In data set [2], `Cc1cc(C)c(C#N)c(SCC(=O)c2ccccc2)n1` [Compound 2, c1c(C)c(C#N)c(SCC(=O)c2ccccc2)nc1C] returned a microsomal CLint at 0.5 µM of 1560 µL/min/mg. Besides, in data set [3], the Papp at 5 h, 1 µM is 20.4 ×10⁻⁶ cm/s.

As to `Cc1cc(C)c(C#N)c(SCC(=O)c2ccsc2)n1` [Compound 3, S(c1nc(C)cc(C)c1C#N)CC(=O)c2cscc2], the intrinsic clearance (microsomal CLint) at 0.5 µM in data set [2] was determined as 1320 µL/min/mg. In addition, the apparent permeability coefficient (Papp) at 5 h, 1 µM in data set [3] was found to be 23.3 ×10⁻⁶ cm/s.

For `CCc1ccc(C(=O)CSc2nc(C)cc(C)c2C#N)cc1` [Compound 5, S(c1nc(C)cc(C)c1C#N)CC(=O)c2ccc(CC)cc2], in data set [2], the microsomal CLint at 0.5 µM worked out at 8860 µL/min/mg. Moreover, the apparent permeability (Papp) at 5 h, 1 µM in data set [3] came out at 1 ×10⁻⁶ cm/s.

As for `Cc1cc(C)c(C#N)c(SCC(=O)c2ccc(F)cc2)n1` [Compound 6, S(c1nc(C)cc(C)c1C#N)CC(=O)c2ccc(F)cc2], the Papp at 5 h, 1 µM in data set [3] was 8 ×10⁻⁶ cm/s.

Take `Cc1cc(C)c(C#N)c(SCC(=O)c2ccc(F)cc2F)n1` [Compound 7, O=C(CSc1nc(C)cc(C)c1C#N)c2ccc(F)cc2F]: the microsomal CLint at 0.5 µM in data set [2] was 4040 µL/min/mg. The molecule further displayed an apparent permeability coefficient (Papp) at 5 h, 1 µM in data set [3] of 7.5 ×10⁻⁶ cm/s.

In data set [2], `Cc1cc(C)c(C#N)c(SCC(=O)c2ccc(Cl)cc2)n1` [Compound 8, Cc1c(C#N)c(SCC(=O)c2ccc(Cl)cc2)nc(C)c1] showed a microsomal CLint at 0.5 µM of 8880 µL/min/mg. Moreover, the Papp at 5 h, 1 µM in data set [3] was 4.3 ×10⁻⁶ cm/s.

On to `Cc1cc(C)c(C#N)c(SCC(=O)c2ccc(Cl)cc2Cl)n1` [Compound 9, Clc1cc(ccc1C(CSc2c(C#N)c(C)cc(C)n2)=O)Cl], for which the microsomal CLint at 0.5 µM in data set [2] turned out to be 35300 µL/min/mg. Besides, the Papp at 5 h, 1 µM in data set [3] was determined as 1.7 ×10⁻⁶ cm/s.

Regarding `COc1ccccc1C(=O)CSc1nc(C)cc(C)c1C#N` [Compound 10, S(c1nc(C)cc(C)c1C#N)CC(=O)c2ccccc2OC], the microsomal CLint at 0.5 µM in data set [2] stood at 9670 µL/min/mg. The Papp at 5 h, 1 µM in data set [3] was determined as 9.3 ×10⁻⁶ cm/s.

Consider `COc1ccc(C(=O)CSc2nc(C)cc(C)c2C#N)cc1` [Compound 11, S(c1nc(C)cc(C)c1C#N)CC(=O)c2ccc(OC)cc2], for which the intrinsic clearance (microsomal CLint) at 0.5 µM in data set [2] amounted to 4300 µL/min/mg. For the same molecule, in data set [3], the Papp at 5 h, 1 µM is 24.6 ×10⁻⁶ cm/s.

As for `Cc1cc(C)c(C#N)c(SCC(=O)N2CCOCC2)n1` [Compound 16, Cc1c(C#N)c(SCC(=O)N2CCOCC2)nc(C)c1], in data set [2], the microsomal CLint at 0.5 µM was 73.9 µL/min/mg. Further, in data set [3], the apparent permeability coefficient (Papp) at 5 h, 1 µM was 11.7 ×10⁻⁶ cm/s.

`Cc1cc(C)c(C#N)c(OCC(=O)c2ccccc2)n1` [Compound 23, O(c1nc(C)cc(C)c1C#N)CC(=O)c2ccccc2]: in data set [2], the microsomal CLint at 0.5 µM was 3240 µL/min/mg. Further, the Papp at 5 h, 1 µM in data set [3] was determined as 31.1 ×10⁻⁶ cm/s.

In the case of `Cc1cc(C)c(C(N)=O)c(SCC(=O)c2ccc(F)cc2)n1` [Compound 38, O=C(CSc1nc(C)cc(C)c1C(=O)N)c2ccc(F)cc2], in data set [2], the microsomal CLint at 0.5 µM was found to be 892 µL/min/mg. The molecule also gave a Papp at 5 h, 1 µM in data set [3] of 17.5 ×10⁻⁶ cm/s.
